Measured values published in patent US6780872B2, “Tricyclic dihydropyrazolone and tricyclic dihydroisoxazolone potassium channel openers” (Abbott Laboratories, priority 2000, dated 2004).
pEC50: −log10 of the molar value.

Tested on: guinea-pig urinary bladder (GPB) cells
Assay: Membrane hyperpolarization (MHP) assay, DiBAC(4)3 dye, FLIPR
Format: cell-based
Conditions: Cavia porcellus; for pEC50: membrane hyperpolarization in GPB cells, concentration eliciting 50% of the maximal response of the test sample; for Emax: maximal steady-state hyperpolarization in GPB cells, normalized to response with 10 μM P1075 (=100%)
Experimental: Compounds were evaluated for potassium channel opening activity using primary cultured guinea-pig urinary bladder (GPB) cells.
For the preparation of urinary bladder smooth muscle cells, urinary bladders were removed from male guinea-pigs (Hartley, Charles River, Wilmington, Mass.) weighing 300-400 g and placed in ice-cold Ca^2+-free Krebs solution (Composition, mM: KCl, 2.7; KH2PO4, 1.5; NaCl, 75; Na2HPO4, 9.6; Na2HPO4.7H2O, 8; MgSO4, 2; glucose, 5; HEPES, 10; pH 7.4). Cells were isolated by enzymatic dissociation as previously described with minor modifications in (Klockner, U. and Isenberg, G., Pflugers Arch. 1985, 405, 329-339), hereby incorporated by reference. The bladder was cut into small sections and incubated in 5 mL of the Kreb's solution containing 1 mg/mL collagenase (Sigma, St. Louis, Mo.) and 0.2 mg/mL pronase (Calbiochem, La Jolla, Calif.) with continuous stirring in a cell incubator for 30 minutes. The mixture was then centrifuged at 1300×g for 5 minutes, and the pellet resuspended in Dulbecco's PBS (GIBCO, Gaithersburg, Md.) and recentrifuged to remove residual enzyme. The cell pellet was resuspended in 5 mL growth media (composition: Dulbecco's modified Eagle's medium supplemented with 10% fetal bovine serum, 100 units/mL penicillin, 100 units/mL streptomycin and […] amphotericin B) and further dissociated by pipetting the suspension through a flame-polished Pasteur pipette and passing it through a polypropylene mesh membrane (Spectrum, Houston, Tex.). The cell density was adjusted to 100,000 cells/mL by resuspension in growth media. Cells were plated in clear-bottomed black 96-well plates (Packard) for membrane potential studies at a density of 20,000 cells/well and maintained in a cell incubator with 90% air: 10% CO2 until confluent. Cells were confirmed to be of smooth muscle type by cytoskeletal staining using a monoclonal mouse anti human-α-smooth muscle actin (Biomeda, Foster City, Calif.).
Functional activity at potassium channels was measured by evaluating changes in membrane potential using the bis-oxonol dye DiBAC(4)3 (Molecular Probes) in a 96-well cell-based kinetic assay system, Fluorescent Imaging Plate Reader (FLIPR) (K. S. Schroeder et al., J. Biomed. Screen., v. 1 pp. 7581 (1996)), hereby incorporated by reference. DiBAC(4) is an anionic potentiometric probe which partitions between cells and extracellular solution in a membrane potential-dependent manner. With increasing membrane potential (for example, K^+ depolarization), the probe further partitions into the cell; this is measured as an increase in fluorescence due to dye interaction with intracellular lipids and proteins. Conversely, decreasing membrane potential (hyperpolarization by potassium channel openers) evokes a decrease in fluorescence.
Confluent guinea-pig urinary bladder cells cultured in black clear-bottomed 96-well plates were rinsed twice with […] assay buffer (composition, mM: HEPES, 20; NaCl, 120; KCl, 2; CaCl2, 2; MgCl2, 1; glucose, 5; pH 7.4 at 25° C.) containing 5 μM DiBAC(4) and incubated with […] of the buffer in a cell incubator for 30 minutes at 37° C. to ensure dye distribution across the membrane. After recording the baseline fluorescence for 5 minutes, the reference or test compounds, prepared at 10 times the concentration in the assay buffer, were added directly to the wells. Changes in fluorescence were monitored for an additional 25 minutes. Hyperpolarization responses were corrected for any background noise and were normalized to the response observed with 10 μM of the reference compound P1075, N″-cyano-N-(tert-pentyl)-N′-(3-pyridinyl)guanidine, which was assigned as 100%. P1075 is a potent opener of smooth muscle KATP channels (Quast et al., Mol. Pharmacol., v. 43 pp. 474-481 (1993)) and was prepared using the procedures described in (Manley, J. Med. Chem. (1992) 35, 2327-2340), hereby incorporated by reference. […]

Row | SMILES | pEC50 | Emax [%]
1 | Cn1[nH]c(=O)c2c1NC1=C(C(=O)CC1)C2c1ccc(OC(F)(F)F)cc1 (centres unmarked) [Example 7, 1-methyl-4-[4-(trifluoromethoxy)phenyl]-1,2,4,6,7,8-hexahydrocyclopenta[b]pyrazolo[4,3-e]pyridine-3,5-dione] | < 5.00 | 
2 | Cn1[nH]c(=O)c2c1NC1=C(C(=O)C(C)(C)CC1)C2c1ccc(F)c(Br)c1 (centres unmarked) [Example 22, 4-(3-bromo-4-fluorophenyl)-1,6,6-trimethyl-4,7,8,9-tetrahydro-1H-pyrazolo[3,4-b]quinoline-3,5(2H,6H)-dione] | 6.48 | 105
3 | Cn1[nH]c(=O)c2c1NC1=C(C(=O)CC1)C2c1ccc(Cl)c(Cl)c1 (centres unmarked) [Example 13, 4-(3,4-dichlorophenyl)-1-methyl-1,2,4,6,7,8-hexahydrocyclopenta[b]pyrazolo[4,3-e]pyridine-3,5-dione] | 6.17 | 101
